Source: ChEMBL document CHEMBL1153880, “Synthesis and adrenolytic activity of 1-(1H-indol-4-yloxy)-3-{[2-(2-methoxyphenoxy)ethyl]amino}propan-2-ol and its enantiomers. Part 1” (Eur J Med Chem, 2009)
The source made the active and inactive calls. The calls are words filed in the database; no cut-off is given here.

What was measured:
[1] = target: T1, Adrenergic receptor alpha-1 (Rattus norvegicus, UniProt P15823+P23944+P43140); assay: Displacement of [3H]prazosin from alpha1 adrenergic receptor in rat cerebral cortex by liquid scintillation method; type: tissue-based
T1 sequence (P15823 whole entry): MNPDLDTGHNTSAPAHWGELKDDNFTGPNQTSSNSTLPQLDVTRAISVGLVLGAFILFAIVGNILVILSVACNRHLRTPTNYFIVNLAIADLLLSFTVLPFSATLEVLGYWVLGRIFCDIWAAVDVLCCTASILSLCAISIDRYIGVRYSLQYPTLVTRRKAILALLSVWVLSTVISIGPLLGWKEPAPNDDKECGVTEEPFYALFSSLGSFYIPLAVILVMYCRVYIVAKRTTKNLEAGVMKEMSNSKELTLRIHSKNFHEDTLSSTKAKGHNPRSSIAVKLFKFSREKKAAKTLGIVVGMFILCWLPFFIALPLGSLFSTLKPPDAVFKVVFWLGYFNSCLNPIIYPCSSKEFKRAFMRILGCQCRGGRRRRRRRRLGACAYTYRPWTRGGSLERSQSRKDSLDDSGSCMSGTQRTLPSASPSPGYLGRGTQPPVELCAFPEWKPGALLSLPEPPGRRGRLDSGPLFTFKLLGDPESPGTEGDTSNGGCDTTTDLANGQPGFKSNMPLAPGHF
T1 sequence (P23944 whole entry): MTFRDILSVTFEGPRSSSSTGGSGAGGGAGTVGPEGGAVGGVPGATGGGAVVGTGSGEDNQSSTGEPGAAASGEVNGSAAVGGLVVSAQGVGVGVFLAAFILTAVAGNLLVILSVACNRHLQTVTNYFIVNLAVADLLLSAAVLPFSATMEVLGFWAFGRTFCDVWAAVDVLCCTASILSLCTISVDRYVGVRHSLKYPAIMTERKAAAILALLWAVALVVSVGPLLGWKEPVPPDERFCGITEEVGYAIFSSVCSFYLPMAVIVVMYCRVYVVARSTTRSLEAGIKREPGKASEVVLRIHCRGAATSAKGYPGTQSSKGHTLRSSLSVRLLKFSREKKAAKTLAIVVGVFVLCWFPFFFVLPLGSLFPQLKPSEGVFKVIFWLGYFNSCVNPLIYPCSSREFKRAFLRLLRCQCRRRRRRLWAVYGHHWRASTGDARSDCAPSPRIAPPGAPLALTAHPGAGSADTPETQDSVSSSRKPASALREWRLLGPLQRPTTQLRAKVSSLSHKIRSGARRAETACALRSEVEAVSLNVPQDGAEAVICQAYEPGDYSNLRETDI
T1 sequence (P43140 whole entry): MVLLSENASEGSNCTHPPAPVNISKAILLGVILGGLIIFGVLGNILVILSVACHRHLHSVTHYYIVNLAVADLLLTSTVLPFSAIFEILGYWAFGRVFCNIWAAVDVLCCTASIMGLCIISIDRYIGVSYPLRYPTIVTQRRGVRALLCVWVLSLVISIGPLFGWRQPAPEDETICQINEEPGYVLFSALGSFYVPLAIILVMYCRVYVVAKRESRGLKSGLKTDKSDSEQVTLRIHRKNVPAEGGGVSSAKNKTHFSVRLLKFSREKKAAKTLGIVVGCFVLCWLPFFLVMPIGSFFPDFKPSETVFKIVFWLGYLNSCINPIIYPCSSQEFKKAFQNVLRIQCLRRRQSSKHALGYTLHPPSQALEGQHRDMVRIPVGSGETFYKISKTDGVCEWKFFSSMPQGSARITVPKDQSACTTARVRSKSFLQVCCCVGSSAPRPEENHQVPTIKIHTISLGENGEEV

Rattus norvegicus [2] = assay: Effect on electrocardiogram in anaesthetized Wistar rat assessed as change in QRS interval at 1 mg/kg, iv after 1 min by electrocardiography; type: functional
Rattus norvegicus [3] = assay: Effect on electrocardiogram in anaesthetized Wistar rat assessed as change in Q-T interval at 1 mg/kg, iv after 1 min by electrocardiography; type: functional
Rattus norvegicus [4] = assay: Effect on heart rate in anaesthetized Wistar rat assessed as number of beats per minute at 1 mg/kg, iv after 1 min by electrocardiography; type: functional
Rattus norvegicus [5] = assay: Effect on electrocardiogram in anaesthetized Wistar rat assessed as change in Q-T interval at 1 mg/kg, iv after 15 mins by electrocardiography; type: functional
Rattus norvegicus [6] = assay: Effect on heart rate in anaesthetized Wistar rat assessed as number of beats per minute at 1 mg/kg, iv after 15 mins by electrocardiography; type: functional
Rattus norvegicus [7] = assay: Antiarrhythmic activity against adrenaline-induced arrhythmia in iv dosed anaesthetized Wistar rat assessed as inhibition of premature ventricular beats pretreated 60 mins prior to adrenaline challenge; type: functional; conditions: Heart
[8] = Acute toxicity in iv dosed anaesthetized Wistar rat; type: organism-based; conditions: in vivo
Rattus norvegicus [9] = assay: Hypotensive activity in anaesthetized normotensive Wistar rat assessed as reduction in methoxamine-induced pressor response at 1 mg/kg, iv after 5 mins; type: functional, organism-based; parameters: dose 1 mg/kg

| SMILES | Ki [1] [nM] | Activity (Rattus norvegicus [2]) [ms] | Activity (Rattus norvegicus [3]) [ms] | Activity (Rattus norvegicus [4]) [min⁻¹] | Activity (Rattus norvegicus [5]) [ms] | Activity (Rattus norvegicus [6]) [min⁻¹] | ED50 (Rattus norvegicus [7]) [mg/kg] | LD50 [8] [mg/kg] | Activity (Rattus norvegicus [9]) |
| --- | --- | --- | --- | --- | --- | --- | --- | --- | --- |
| COc1ccccc1OCCNC[C@H](O)COc1cccc2[nH]ccc12 | 56.7 | 24.3 | 72.3 | 297.2 | 72 | 304.2 | 0.059 | 36.2 | Active |
| COc1ccccc1OCCNCC(O)COc1cccc2[nH]ccc12 (racemic) | 89.8 | 28.4 | 69.2 | 298.7 | 72.8 | 287.3 | 0.34 | 20 | Active |
| COc1ccccc1OCCNC[C@@H](O)COc1cccc2[nH]ccc12 | 88.3 | 22.3 | 63 | 307.8 | 62.8 | 298 | 0.43 | 20.4 | Active |
